Assay results published in ChEMBL document CHEMBL5653631, “A Potent and Selective ULK1 Inhibitor Suppresses Autophagy and Sensitizes Cancer Cells to Nutrient Stress” (iScience, 2018).

Key:
[1] = target: T1, Serine/threonine-protein kinase NLK (Homo sapiens) (UniProt Q9UBE8); test: Inhibition of human recombinant NLK at 500 nM related to control ULK1
T1 sequence (whole entry): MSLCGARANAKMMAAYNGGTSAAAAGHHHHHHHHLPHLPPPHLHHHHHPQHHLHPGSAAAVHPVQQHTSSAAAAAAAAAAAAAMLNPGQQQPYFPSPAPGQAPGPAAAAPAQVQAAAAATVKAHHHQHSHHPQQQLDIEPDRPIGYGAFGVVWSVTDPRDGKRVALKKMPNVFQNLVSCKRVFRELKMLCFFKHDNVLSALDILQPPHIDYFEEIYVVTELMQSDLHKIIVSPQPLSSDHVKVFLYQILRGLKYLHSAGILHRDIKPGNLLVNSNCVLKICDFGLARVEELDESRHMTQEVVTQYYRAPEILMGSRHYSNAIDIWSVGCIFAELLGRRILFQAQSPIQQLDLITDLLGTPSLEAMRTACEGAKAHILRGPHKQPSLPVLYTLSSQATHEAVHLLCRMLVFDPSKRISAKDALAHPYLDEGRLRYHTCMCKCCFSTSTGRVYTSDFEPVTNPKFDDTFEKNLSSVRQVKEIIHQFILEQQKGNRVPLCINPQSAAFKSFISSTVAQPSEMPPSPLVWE

[2] = target: Calcium/calmodulin-dependent protein kinase kinase 2 (Homo sapiens) (UniProt Q96RR4); test: Inhibition of human recombinant CaMKK2 at 15 nM in presence of ATP by radiometric assay relative to control
[3] = target: Cell division cycle 7-related protein kinase (Homo sapiens) (UniProt O00311); test: Inhibition of human recombinant CDC7 at 15 nM in presence of ATP by radiometric assay relative to control
[4] = target: T2, Dual specificity tyrosine-phosphorylation-regulated kinase 2 (Homo sapiens) (UniProt Q92630); test: Inhibition of human recombinant DYRK2 at 15 nM in presence of ATP by radiometric assay relative to control
T2 sequence (whole entry): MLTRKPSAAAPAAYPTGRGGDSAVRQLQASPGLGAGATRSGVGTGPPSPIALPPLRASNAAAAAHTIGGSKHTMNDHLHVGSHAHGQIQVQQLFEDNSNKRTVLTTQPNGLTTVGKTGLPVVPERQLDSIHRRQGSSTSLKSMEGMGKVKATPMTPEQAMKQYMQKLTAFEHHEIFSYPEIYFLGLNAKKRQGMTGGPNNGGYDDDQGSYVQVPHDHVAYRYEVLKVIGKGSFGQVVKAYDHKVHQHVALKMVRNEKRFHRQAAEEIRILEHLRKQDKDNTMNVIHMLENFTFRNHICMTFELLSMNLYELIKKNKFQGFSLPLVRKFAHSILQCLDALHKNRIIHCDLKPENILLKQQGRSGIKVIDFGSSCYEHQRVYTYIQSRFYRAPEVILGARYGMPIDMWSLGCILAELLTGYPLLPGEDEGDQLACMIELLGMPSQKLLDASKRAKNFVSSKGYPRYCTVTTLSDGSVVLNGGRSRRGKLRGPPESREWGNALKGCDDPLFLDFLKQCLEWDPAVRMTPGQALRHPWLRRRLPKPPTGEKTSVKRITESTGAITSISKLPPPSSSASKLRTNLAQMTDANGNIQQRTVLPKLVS

[5] = target: Serine/threonine-protein kinase pim-3 (Homo sapiens) (UniProt Q86V86); test: Inhibition of human recombinant PIM3 at 15 nM in presence of ATP by radiometric assay relative to control
[6] = target: Tyrosine-protein kinase Yes (Homo sapiens) (UniProt P07947); test: Inhibition of human recombinant YES at 15 nM in presence of ATP by radiometric assay relative to control
Homo sapiens = species on record: Homo sapiens; test: Inhibition of human recombinant ABL at 15 nM related to control ULK1
[7] = target: Casein kinase II subunit alpha' (Homo sapiens) (UniProt P19784); test: Inhibition of human recombinant CK2a2 at 15 nM related to control ULK1
[8] = target: Activin receptor type-2A (Homo sapiens) (UniProt P27037); test: Inhibition of human recombinant ACTR2 at 15 nM in presence of ATP by radiometric assay relative to control
[9] = target: T3, Testis-specific serine/threonine-protein kinase 4 (Homo sapiens) (UniProt Q6SA08); test: Inhibition of human recombinant TSSK4 at 40 nM in presence of ATP by radiometric assay relative to control
T3 sequence (whole entry): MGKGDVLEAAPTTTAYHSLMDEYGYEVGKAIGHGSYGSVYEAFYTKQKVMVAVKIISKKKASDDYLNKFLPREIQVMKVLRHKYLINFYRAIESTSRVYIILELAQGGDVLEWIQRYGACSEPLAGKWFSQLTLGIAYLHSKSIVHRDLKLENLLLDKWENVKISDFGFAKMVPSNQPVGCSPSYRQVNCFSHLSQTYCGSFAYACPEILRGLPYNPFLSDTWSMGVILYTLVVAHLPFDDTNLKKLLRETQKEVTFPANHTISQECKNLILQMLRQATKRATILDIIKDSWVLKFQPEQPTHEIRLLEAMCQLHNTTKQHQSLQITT

[10] = target: Transient receptor potential cation channel subfamily M member 7 (Homo sapiens) (UniProt Q96QT4); test: Inhibition of human recombinant ChaK1 at 40 nM related to control ULK1
[11] = target: Serine/threonine-protein kinase mTOR (Homo sapiens) (UniProt P42345); test: Inhibition of human recombinant FRAP at 40 nM related to control ULK1

CNC(=O)c1ccccc1Oc1nc(Nc2cc(OC)c(OC)c(OC)c2)ncc1Br
fold change (FC) [1]: 0.05

CC(C)[C@H](NC(=O)c1cc(-c2cnn3cc(-c4ccc(OCCN5CCCCC5)cc4)cnc23)cs1)C(F)(F)F
inhibition [2]: 1% | inhibition [3]: 8% | inhibition [4]: 8% | inhibition [5]: 2% | inhibition [6]: 76% | fold change (FC) (Homo sapiens): 0.93 | fold change (FC) [7]: 0.06 | inhibition [8]: 4%

O=C(N[C@@H](C1CC1)C(F)(F)F)c1cc(-c2cnn3cc(-c4ccc(F)cc4)cnc23)cs1
inhibition [9]: 0% | fold change (FC) [10]: 0.01 | fold change (FC) [11]: 0
